Patent US20230183219A1, “CONDENSED SUBSTITUTED HYDROPYRROLES AS ANTAGONISTS OF THE MUSCARINIC ACETYLCHOLINE RECEPTOR M4” (Vanderbilt University, priority 2020, published 2023)

Target: T1, Human M4 (Homo sapiens, UniProt P08173)
T1 construct: Human or rat M4 cDNA, along with the chimeric G protein Gqi5, were transfected into Chinese hamster ovary (CHO-K1) cells; expressed in transfected cells; host or cells: CHO-K1 (Chinese hamster ovary, ATCC), stably co-expressing Gqi5
T1 sequence (P08173 1-479): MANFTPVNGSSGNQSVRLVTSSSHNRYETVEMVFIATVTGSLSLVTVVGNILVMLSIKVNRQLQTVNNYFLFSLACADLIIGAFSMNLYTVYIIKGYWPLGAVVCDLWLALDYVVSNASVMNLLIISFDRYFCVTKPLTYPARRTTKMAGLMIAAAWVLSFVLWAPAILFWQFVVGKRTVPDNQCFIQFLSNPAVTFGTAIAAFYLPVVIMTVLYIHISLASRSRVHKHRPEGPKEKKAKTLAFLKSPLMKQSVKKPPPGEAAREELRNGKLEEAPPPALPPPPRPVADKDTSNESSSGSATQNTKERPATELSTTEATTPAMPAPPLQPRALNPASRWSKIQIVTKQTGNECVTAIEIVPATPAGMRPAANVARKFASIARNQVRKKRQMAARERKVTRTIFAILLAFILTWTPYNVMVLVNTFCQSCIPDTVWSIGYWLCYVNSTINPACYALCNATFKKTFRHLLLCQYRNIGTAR
Experiment: mAChR M4 cell-based functional assay (calcium flux, decrease of EC80 acetylcholine response)
Conditions: for remaining activity at 30 µM: % ACh maximum at 30 μM, read-out: Human M4 Emin; for IC50: M4/Gqi5/CHO-K1 cells, decrease of response to EC80 acetylcholine
Outline: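 IC50 reflects inhibition of an EC80 acetylcholine calcium response, fitted by four-parameter logistic equation. Fluo-4-loaded M4/Gqi5 CHO-K1 cells received compound (10-point, 1:3 series) 2 s into the FDSS read, then EC20 acetylcholine at 143 s and EC80 at 268 s.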

Row | remaining activity at 30 µM [%] | IC50 [nM] | Compound
1 | 3 | 52.9 | Cc1ccc(C)c(-c2cc(C(F)(F)F)c(N[C@H]3C[C@@H]4CN(C[C@H]5COCCO5)C[C@@H]4C3)nn2)c1 [Example 72, (3aR,5s,6aS)-2-(((S)-1,4-dioxan-2-yl)methyl)-N-(6-(2,5-dimethylphenyl)-4-(trifluoromethyl)pyridazin-3-yl)octahydro-cyclopenta[c]pyrrol-5-amine]
2 | 3 | 201 | CCOc1ccc(F)cc1-c1cc(C(F)(F)F)c(N[C@H]2C[C@@H]3CN(CC4CCOCC4)C[C@@H]3C2)nn1 [Example 73, (3aR,5s,6aS)-N-(6-(2-ethoxy-5-fluorophenyl)-4-(trifluoromethyl)pyridazin-3-yl)-2-((tetrahydro-2H-pyran-4-yl)methyl)octahydro-cyclopenta[c]pyrrol-5-amine]
3 | 3 | 38.9 | Cc1cc(F)ccc1-c1cc(C(F)(F)F)c(N[C@H]2C[C@@H]3CN(CC4CCOCC4)C[C@@H]3C2)nn1 [Example 74, (3aR,5s,6aS)-N-(6-(4-fluoro-2-methylphenyl)-4-(trifluoromethyl)pyridazin-3-yl)-2-((tetrahydro-2H-pyran-4-yl)methyl)octahydro-cyclopenta[c]pyrrol-5-amine]
4 | 3 | 45.1 | Cn1ncc2cc(-c3cc(C(F)(F)F)c(N[C@H]4C[C@@H]5CN(CC6CCOCC6)C[C@@H]5C4)nn3)ccc21 [Example 75, (3aR,5s,6aS)-N-(6-(1-methyl-1H-indazol-5-yl)-4-(trifluoromethyl)pyridazin-3-yl)-2-((tetrahydro-2H-pyran-4-yl)methyl)octahydro-cyclopenta[c]pyrrol-5-amine]
5 | 3 | 93.8 | Cn1cnc2ccc(-c3cc(C(F)(F)F)c(N[C@H]4C[C@@H]5CN(CC6CCOCC6)C[C@@H]5C4)nn3)cc21 [Example 76, (3aR,5s,6aS)-N-(6-(1-methyl-1H-benzo[d]imidazol-6-yl)-4-(trifluoromethyl)pyridazin-3-yl)-2-((tetrahydro-2H-pyran-4-yl)methyl)octahydro-cyclopenta[c]pyrrol-5-amine]
6 | 3 | 38 | COc1ccc(-c2cc(C(F)(F)F)c(N[C@H]3C[C@@H]4CN(CC5CCOCC5)C[C@@H]4C3)nn2)c(C)c1 [Example 77, (3aR,5s,6aS)-N-(6-(4-methoxy-2-methylphenyl)-4-(trifluoromethyl)pyridazin-3-yl)-2-((tetrahydro-2H-pyran-4-yl)methyl)octahydro-cyclopenta[c]pyrrol-5-amine]
7 | 3 | 172 | COc1cc(F)c(-c2cc(C(F)(F)F)c(N[C@H]3C[C@@H]4CN(CC5CCOCC5)C[C@@H]4C3)nn2)cc1F [Example 78, (3aR,5s,6aS)-N-(6-(2,5-difluoro-4-methoxyphenyl)-4-(trifluoromethyl)pyridazin-3-yl)-2-((tetrahydro-2H-pyran-4-yl)methyl)octahydro-cyclopenta[c]pyrrol-5-amine]
8 | 3 | 349 | Cc1ccc(-c2cc(C(F)(F)F)c(N[C@H]3C[C@@H]4CN(CC5CCOCC5)C[C@@H]4C3)nn2)c(F)c1 [Example 79, (3aR,5s,6aS)-N-(6-(2-fluoro-4-methylphenyl)-4-(trifluoromethyl)pyridazin-3-yl)-2-((tetrahydro-2H-pyran-4-yl)methyl)octahydro-cyclopenta[c]pyrrol-5-amine]
9 | 3 | 170 | COc1c(F)cc(-c2cc(C(F)(F)F)c(N[C@H]3C[C@@H]4CN(CC5CCOCC5)C[C@@H]4C3)nn2)cc1F [Example 80, (3aR,5s,6aS)-N-(6-(3,5-difluoro-4-methoxyphenyl)-4-(trifluoromethyl)pyridazin-3-yl)-2-((tetrahydro-2H-pyran-4-yl)methyl)octahydro-cyclopenta[c]pyrrol-5-amine]
10 | 3 | 178 | Fc1cccc(-c2cc(C(F)(F)F)c(N[C@H]3C[C@@H]4CN(CC5CCOCC5)C[C@@H]4C3)nn2)c1F [Example 81, (3aR,5s,6aS)-N-(6-(2,3-difluorophenyl)-4-(trifluoro-methyl)pyridazin-3-yl)-2-((tetrahydro-2H-pyran-4-yl)methyl)octahydro-cyclopenta[c]pyrrol-5-amine]
11 | 3 | 286 | Fc1ccc(-c2cc(C(F)(F)F)c(N[C@H]3C[C@@H]4CN(CC5CCOCC5)C[C@@H]4C3)nn2)c(F)c1 [Example 82, (3aR,5s,6aS)-N-(6-(2,4-difluorophenyl)-4-(trifluoro-methyl)pyridazin-3-yl)-2-((tetrahydro-2H-pyran-4-yl)methyl)octahydro-cyclopenta[c]pyrrol-5-amine]
12 | 3 | 408 | Fc1cc(OC(F)F)ccc1-c1cc(C(F)(F)F)c(N[C@H]2C[C@@H]3CN(CC4CCOCC4)C[C@@H]3C2)nn1 [Example 83, (3aR,5s,6aS)-N-(6-(2-fluoro-4-(difluoromethoxy)phenyl)-4-(trifluoromethyl)pyridazin-3-yl)-2-((tetrahydro-2H-pyran-4-yl)methyl)octahydro-cyclopenta[c]pyrrol-5-amine]
13 | 3 | 73.7 | CCOc1ccc(-c2cc(C(F)(F)F)c(N[C@H]3C[C@@H]4CN(CC5CCOCC5)C[C@@H]4C3)nn2)c(C)c1 [Example 84, (3aR,5s,6aS)-N-(6-(4-ethoxy-2-methylphenyl)-4-(trifluoromethyl)pyridazin-3-yl)-2-((tetrahydro-2H-pyran-4-yl)methyl)octahydro-cyclopenta[c]pyrrol-5-amine]
14 | 3 | 42.8 | CCc1ccccc1-c1cc(C(F)(F)F)c(N[C@H]2C[C@@H]3CN(CC4CCOCC4)C[C@@H]3C2)nn1 [Example 85, (3aR,5s,6aS)-N-(6-(2-ethylphenyl)-4-(trifluoro-methyl)pyridazin-3-yl)-2-((tetrahydro-2H-pyran-4-yl)methyl)octahydro-cyclopenta[c]pyrrol-5-amine]
15 | 4 | 200 | CN1Cc2cc(-c3cc(C(F)(F)F)c(N[C@H]4C[C@@H]5CN(CC6CCOCC6)C[C@@H]5C4)nn3)ccc2C1=O [Example 86, 2-methyl-5-(6-(((3aR,5s,6aS)-2-((tetrahydro-2H-pyran-4-yl)methyl)octahydro-cyclopenta[c]pyrrol-5-yl)amino)-5-(trifluoro-methyl)pyridazin-3-yl)isoindolin-1-one]
16 | 4 | 89.6 | Cn1ccc2cc(-c3cc(C(F)(F)F)c(N[C@H]4C[C@@H]5CN(CC6CCOCC6)C[C@@H]5C4)nn3)ccc21 [Example 87, (3aR,5s,6aS)-N-(6-(1-methyl-1H-indol-5-yl)-4-(trifluoromethyl)pyridazin-3-yl)-2-((tetrahydro-2H-pyran-4-yl)methyl)octahydro-cyclopenta[c]pyrrol-5-amine]
17 | 3 | 47.6 | FC(F)(F)c1cc(-c2ccc3c(c2)CCO3)nnc1N[C@H]1C[C@@H]2CN(CC3CCOCC3)C[C@@H]2C1 [Example 88, (3aR,5s,6aS)-N-(6-(2,3-dihydrobenzofuran-5-yl)-4-(trifluoromethyl)pyridazin-3-yl)-2-((tetrahydro-2H-pyran-4-yl)methyl)octahydro-cyclopenta[c]pyrrol-5-amine]
